Earlier results in US20150044284A1, “DOSAGE FORM COMPRISING A STEROID 5-ALPHA-REDUCTASE INHIBITOR AND AN ALPHA BLOCKER, PROCESS FOR PREPARING OF A DOSAGE FORM, USE OF DOSAGE FORM, METHOD FOR THE TREATMENT OR PROPHYLAXIS OF A DISEASE OR CONDITION MEDIATED BY ANDROGEN” (EMS S.A., priority 2013, published 2015).

Key:
[1] = tested on: DHT (dihydrotestosterone); details: after only two weeks

In the case of `C[C@]12C=CC(=O)N[C@@H]1CC[C@@H]1[C@@H]2CC[C@]2(C)[C@@H](C(=O)Nc3cc(C(F)(F)F)ccc3C(F)(F)F)CC[C@@H]12` [dutasteride], the “Reduction of DHT levels” value [1] is given as 90% and the Solubility in water is given as “completely insoluble in water”.
